Reference: ChEMBL document CHEMBL5257024, “Synthesis of α,β-Unsaturated Carbonyl-Based Compounds, Oxime and Oxime Ether Analogs as Potential Anticancer Agents for Overcoming Cancer Multidrug Resistance by Modulation of Efflux Pumps in Tumor Cells” (J Med Chem, 2016)
Calls of active or inactive are those of the source. The rule behind the calls is not given here.

Columns and labels:
[1] = Inhibition of full length mouse GST-tagged BRAF V600E mutant preincubated for 60 mins followed by addition of N-terminal His-tagged full length human MEK1 incubated for 25 mins in presence of ATP by ELISA assay
[2] = test system: L5178Y; experiment: Reversal of multidrug resistance in mouse L5178Y cells transfected with human MDR1 assessed as reversal of rhodamine 123 accumulation at 50 ug/ml incubated for 30 mins by flow cytometry; type: functional, cell-based; settings: dose 50.0 µg/ml
[3] = test system: PC-3; experiment: cells; settings: Homo sapiens, PC-3, 48 h
Description: Antiproliferative activity against human PC-3 cells assessed as inhibition of cell growth incubated for 48 hrs by propidium iodide staining based fluorometer assay

[4] = Toxicity in mouse L5178Y cells transfected with human MDR1 at 50 ug/ml after short period of incubation by tryptan blue assay; type: cell-based; settings: dose 50 µg/ml
[5] = test system: PANC-1; experiment: cells; settings: Homo sapiens, PANC-1, 48 h
Description: Antiproliferative activity against human PANC-1 cells assessed as inhibition of cell growth incubated for 48 hrs by propidium iodide staining based fluorometer assay

[6] = target: Tubulin (Sus scrofa) (UniProt P02554+P02550); experiment: Inhibition of pig brain tubulin polymerization at 25 uM measured after 15 mins by fluorescence based turbidimetry; type: tissue-based
[7] = test system: MIA PaCa-2; experiment: Antiproliferative activity against human MIA PaCa-2 cells assessed as inhibition of cell growth incubated for 48 hrs by propidium iodide staining based fluorometer assay; type: functional; settings: MIA PaCa-2, 48 h
[8] = test system: NCI-H460; experiment: cells; settings: Homo sapiens, NCI-H460, 48 h
Description: Antiproliferative activity against human NCI-H460 cells assessed as inhibition of cell growth incubated for 48 hrs by propidium iodide staining based fluorometer assay

[9] = test system: MCF7; experiment: Antiproliferative activity against human MCF7 cells assessed as inhibition of cell growth incubated for 48 hrs by propidium iodide staining based fluorometer assay; type: functional; settings: MCF7, 48 h
[10] = test system: A549; experiment: Antiproliferative activity against human A549 cells assessed as inhibition of cell growth incubated for 48 hrs by propidium iodide staining based fluorometer assay; type: functional; settings: A549, 48 h
[11] = test system: HT-29; experiment: cells; settings: Homo sapiens, HT-29, 48 h
Description: Antiproliferative activity against human HT-29 cells assessed as inhibition of cell growth incubated for 48 hrs by propidium iodide staining based fluorometer assay

[12] = test system: L5178Y; experiment: Reversal of multidrug resistance in mouse L5178Y cells transfected with human MDR1 assessed as reversal of rhodamine 123 accumulation at 5 ug/ml incubated for 30 mins by flow cytometry; type: functional, cell-based; settings: dose 5.0 µg/ml
[13] = target: Epidermal growth factor receptor (Homo sapiens, UniProt P00533); experiment: Inhibition of recombinant 6His-tagged EGFR cytoplasmic domain (645 to 1186 residues) (unknown origin) autophosphorylation expressed in baculovirus infected Sf9 insect cells preincubated for 10 mins followed by ATP and MgCl2 addition measured after 60 mins by DELFIA/time-resolved fluorometric analysis
[14] = organism: Sus scrofa; experiment: Induction of pig brain microtubule stabilization at 25 uM measured after 15 mins by fluorescence based turbidimetry; type: tissue-based
[15] = Cytotoxicity against human MCF-10A cells assessed as cell viability incubated for 96 hrs by MTT assay; type: toxicity, cell-based; set-up: concentration or dose not given beside the values; settings: read-out: Activity

Chain of Tubulin (Sus scrofa) (P02550 whole entry, looked up): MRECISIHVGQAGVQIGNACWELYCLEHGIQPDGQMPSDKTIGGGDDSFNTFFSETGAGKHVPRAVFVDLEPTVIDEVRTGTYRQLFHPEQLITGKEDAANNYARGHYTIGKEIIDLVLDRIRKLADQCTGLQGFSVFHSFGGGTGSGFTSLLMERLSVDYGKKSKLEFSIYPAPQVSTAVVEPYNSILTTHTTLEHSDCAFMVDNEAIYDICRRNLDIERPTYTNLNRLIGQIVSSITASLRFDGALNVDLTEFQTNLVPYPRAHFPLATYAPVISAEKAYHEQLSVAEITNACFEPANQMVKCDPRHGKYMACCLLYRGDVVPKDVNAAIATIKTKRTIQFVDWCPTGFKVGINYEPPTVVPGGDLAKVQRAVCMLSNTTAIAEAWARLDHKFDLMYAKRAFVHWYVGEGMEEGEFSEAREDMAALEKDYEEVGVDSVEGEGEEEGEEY
Chain of Tubulin (Sus scrofa) (P02554 whole entry, looked up): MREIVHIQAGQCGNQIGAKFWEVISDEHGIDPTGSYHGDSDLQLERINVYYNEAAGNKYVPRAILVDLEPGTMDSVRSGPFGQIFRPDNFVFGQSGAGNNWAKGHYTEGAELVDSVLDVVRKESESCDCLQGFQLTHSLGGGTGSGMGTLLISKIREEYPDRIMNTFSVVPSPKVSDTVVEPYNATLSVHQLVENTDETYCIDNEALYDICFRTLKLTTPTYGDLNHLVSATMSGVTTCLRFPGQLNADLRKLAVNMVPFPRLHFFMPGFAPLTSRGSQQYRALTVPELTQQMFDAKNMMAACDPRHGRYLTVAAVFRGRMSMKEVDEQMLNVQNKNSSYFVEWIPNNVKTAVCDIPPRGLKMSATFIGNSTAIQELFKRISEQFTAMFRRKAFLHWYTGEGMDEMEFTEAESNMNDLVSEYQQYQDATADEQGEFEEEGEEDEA
Chain of Epidermal growth factor receptor (P00533 whole entry, the tested form may be a part): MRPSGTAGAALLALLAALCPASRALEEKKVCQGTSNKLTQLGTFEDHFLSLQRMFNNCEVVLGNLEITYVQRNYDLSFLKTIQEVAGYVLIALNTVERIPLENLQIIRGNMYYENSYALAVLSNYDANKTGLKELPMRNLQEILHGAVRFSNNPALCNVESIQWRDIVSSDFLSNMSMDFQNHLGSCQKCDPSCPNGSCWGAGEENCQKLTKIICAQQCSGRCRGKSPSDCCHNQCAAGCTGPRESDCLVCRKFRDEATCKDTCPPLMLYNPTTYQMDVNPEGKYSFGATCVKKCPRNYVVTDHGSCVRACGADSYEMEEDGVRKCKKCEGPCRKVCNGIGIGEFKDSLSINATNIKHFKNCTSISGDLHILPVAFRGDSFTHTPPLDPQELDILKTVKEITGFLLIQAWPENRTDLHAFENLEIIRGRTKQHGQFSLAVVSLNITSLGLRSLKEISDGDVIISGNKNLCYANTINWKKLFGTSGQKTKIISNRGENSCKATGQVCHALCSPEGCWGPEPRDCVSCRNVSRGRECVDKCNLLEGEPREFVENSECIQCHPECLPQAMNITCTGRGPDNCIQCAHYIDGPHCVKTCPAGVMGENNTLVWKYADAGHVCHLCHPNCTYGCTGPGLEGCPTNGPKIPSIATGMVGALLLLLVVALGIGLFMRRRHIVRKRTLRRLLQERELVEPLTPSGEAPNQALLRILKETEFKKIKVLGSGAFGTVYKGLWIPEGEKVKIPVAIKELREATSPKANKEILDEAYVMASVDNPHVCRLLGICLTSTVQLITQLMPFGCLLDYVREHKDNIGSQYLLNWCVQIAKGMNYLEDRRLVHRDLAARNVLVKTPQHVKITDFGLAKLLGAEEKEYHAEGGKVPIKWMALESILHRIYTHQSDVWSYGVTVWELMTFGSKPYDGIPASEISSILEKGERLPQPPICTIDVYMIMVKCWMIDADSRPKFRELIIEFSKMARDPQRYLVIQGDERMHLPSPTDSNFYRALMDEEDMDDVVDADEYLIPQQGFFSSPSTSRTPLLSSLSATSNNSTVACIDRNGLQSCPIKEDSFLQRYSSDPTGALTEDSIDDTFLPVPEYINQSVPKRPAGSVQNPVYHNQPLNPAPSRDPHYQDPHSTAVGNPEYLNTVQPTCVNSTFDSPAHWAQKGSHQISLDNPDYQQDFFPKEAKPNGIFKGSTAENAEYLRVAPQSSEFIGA

Compound	IC50 [1] [nM]	IC50 [3] [µM]	IC50 [5] [µM]	inhibition [6]	IC50 [7] [µM]	IC50 [8] [µM]	IC50 [9] [µM]	IC50 [10] [µM]	IC50 [11] [µM]	IC50 [13] [µM]	Activity [2]	Activity [4]	Activity [12]	Activity [14]	viability at 96 h [15] [%]
COc1cc2c(cc1OC)C(=O)/C(=C/c1ccc(OC)c(OC)c1Cl)CC2	–	5.2	5.4	–	5	5.8	5.4	5.4	5.2	–	–	–	–	–	97
CCN(CC)CCO/N=C1\C(=C\c2ccc(OC)c(OC)c2Cl)CCc2ccc([N+](=O)[O-])cc21	–	6.4	6.9	–	6.6	7.2	6.6	7.1	7	–	–	–	–	–	94
COc1cccc(/C=C2\CCc3ccc(Cl)cc3C2=O)c1Cl	–	13.7	12.4	–	12.8	13.3	14.1	13.3	12.6	–	–	–	–	–	94
COc1ccc(/C=C2\CCc3ccccc3C2=O)c(Cl)c1OC	–	23.4	24.5	–	23.2	22.9	20.5	23.3	26.5	–	–	–	–	–	96
COc1ccc(/C=C2\CCC/C(=C\c3ccc(OC)c(OC)c3Cl)C2=O)c(Cl)c1OC	–	5.2	4.2	–	4.2	4.1	4.7	3.9	3.7	–	–	–	–	–	90
COc1ccc(/C=C2\CC(C)c3ccccc3C2=O)c(Cl)c1OC (stereo not drawn)	–	7.3	7.5	–	7.2	7.9	7.2	7.7	7.2	–	–	–	–	–	99
COc1cc(/C=C2\CC(C(C)C)C/C(=C\c3cc(OC)c(OC)c(OC)c3Br)C2=O)c(Br)c(OC)c1OC (stereo not drawn)	–	7.2	7.2	–	7.5	7.4	8.1	7.6	6.7	–	–	–	–	–	89
COc1cccc(/C=C2\CC(C)c3ccccc3C2=O)c1Cl (stereo not drawn)	–	9.9	8.3	–	9.8	9.6	8.8	8.7	8.4	–	–	–	–	–	98
COc1ccc(/C=C2\CNC/C(=C\c3ccc(OC)c(OC)c3Cl)C2=O)c(Cl)c1OC	–	7	6.5	–	6.2	7.2	6.4	7.5	6.6	–	–	–	–	–	92
COc1cccc(/C=C2\CC(C(C)C)C/C(=C\c3cccc(OC)c3Cl)C2=O)c1Cl (stereo not drawn)	–	14.1	14.5	–	16.7	13.9	15.2	13.4	12.1	–	–	–	–	–	93
COc1cc(/C=C2\CNC/C(=C\c3cc(OC)c(OC)c(OC)c3Br)C2=O)c(Br)c(OC)c1OC	–	4.8	4.2	–	4.3	4.9	4	4.4	4.5	–	–	–	–	–	96
COc1cccc(/C=C2\CCc3ccc(Br)cc3C2=O)c1Cl	–	13.7	13.4	–	12.8	12.9	14.1	13.3	14	–	–	–	–	–	94
COc1ccc(/C=C2\CCc3ccc(F)cc3C2=O)c(Cl)c1OC	–	9.3	9.8	–	9.6	10.6	9.8	10.9	9.4	–	–	–	–	–	95

The remaining compounds from weak to strong by IC50 [3], led by results:

IC50 [1] [nM]	IC50 [3] [µM]	IC50 [5] [µM]	inhibition [6]	IC50 [7] [µM]	IC50 [8] [µM]	IC50 [9] [µM]	IC50 [10] [µM]	IC50 [11] [µM]	IC50 [13] [µM]	Compound	Activity [2]	Activity [4]	Activity [12]	Activity [14]	viability at 96 h [15] [%]
–	4.7	4.2	–	4.9	4.1	4.1	4.1	4.5	–	CCN(CC)CCON=C1/C(=C/c2cc(OC)c(OC)c(OC)c2Br)CC(C)C/C1=C\c1cc(OC)c(OC)c(OC)c1Br (stereo not drawn)	–	–	–	inactive	94
–	4.4	4.2	–	4	4.6	4.9	4.3	4.5	–	CCN(CC)CCO/N=C1\C(=C\c2cc(OC)c(OC)c(OC)c2Br)CCc2ccc([N+](=O)[O-])cc21	–	–	–	–	97
–	3.9	3.3	–	2.9	4.2	2.8	3.1	3.4	–	COc1cccc(/C=C2\CC(C)C/C(=C\c3cccc(OC)c3Cl)C2=O)c1Cl (stereo not drawn)	–	–	–	–	93
–	3.3	3.4	–	3.2	3.5	3.3	3.9	3.8	–	COc1ccc(/C=C2\CN(C)C/C(=C\c3ccc(OC)c(OC)c3Cl)C2=O)c(Cl)c1OC	–	–	–	–	90
–	3.1	3.5	–	3.4	3.1	3.3	3.6	3.5	–	COc1cccc(/C=C2\CCc3ccc([N+](=O)[O-])cc3C2=O)c1Cl	–	–	–	–	95
–	2.9	2.4	–	2.6	2.6	3.1	2.6	2	–	COc1cc(/C=C2\CCC/C(=C\c3cc(OC)c(OC)c(OC)c3Br)C2=O)c(Br)c(OC)c1OC	–	–	–	–	89
–	2.4	2.4	–	2.3	2.2	2.1	2.6	2.9	–	COc1cc(/C=C2\CC(C)c3ccccc3C2=O)c(Br)c(OC)c1OC (stereo not drawn)	–	–	–	–	92
–	2.2	2.7	–	2.1	2.9	2.2	2.1	2.9	–	CCN(CC)CCO/N=C1\C(=C\c2cc(OC)c(OC)c(OC)c2Br)CCc2c(OC)ccc(OC)c21	–	–	–	–	95
2400	1.9	2	Active	2.6	1.9	2.5	2.2	2.1	3.2	COc1cc(/C=C2\CC(C)c3ccccc3\C2=N\O)c(Br)c(OC)c1OC (stereo not drawn)	Active	Non-Toxic	inactive	inactive	98
–	1.6	1.9	–	1.7	1.8	2.3	1.9	1.9	–	COc1ccc(/C=C2\CCc3ccc([N+](=O)[O-])cc3C2=O)c(Cl)c1OC	–	–	–	–	90
–	1.6	1.8	–	1.9	1.8	1.9	1.3	1.1	–	COc1cc(/C=C2\CN(C)C/C(=C\c3cc(OC)c(OC)c(OC)c3Br)C2=O)c(Br)c(OC)c1OC	–	–	–	–	92
–	1.1	1.6	–	1.4	1.2	1.3	1.8	1.8	–	COc1cc(/C=C2\CC(C)C/C(=C\c3cc(OC)c(OC)c(OC)c3Br)C2=O)c(Br)c(OC)c1OC (stereo not drawn)	–	–	–	–	91
1800	0.7	0.7	Active	0.6	0.6	0.5	0.4	0.6	4.2	COc1ccc(OC)c2c1CCC(=C\c1cc(OC)c(OC)c(OC)c1Br)/C2=N\O	Active	Non-Toxic	inactive	inactive	89
3200	0.08	0.09	inactive	0.08	0.07	0.09	0.07	0.09	0.1	CCN(CC)CCON=C1/C(=C/c2cc(OC)c(OC)c(OC)c2Br)CN(C)C/C1=C\c1cc(OC)c(OC)c(OC)c1Br	inactive	Non-Toxic	inactive	inactive	95
